# ChEMBL document CHEMBL1201862, “PubChem BioAssay data set” (2004)
# Activity calls are given as the source filed them. For most assays here, no stated cut-off is given here; in the data, actives have a measured EC50 and inactives only a lower limit.
# How the values were obtained:
# [1] = Trypanosoma cruzi growth suppression in host cells – NIH3T3 host cells, beta-gal luminescence, confirmation (AID 2044); assay type: functional, cell-based;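 further: intracellular parasites grown in NIH/3T3 mouse fibroblasts as host cells; luminescent beta-galactosidase reporter signal from transgenic T. cruzi replicating inside host cells; inhibitors lower the luminescence signal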
# [2] = NIH3T3 cell viability loss – ATP luminescence, mouse fibroblasts, counter-screen, dose response (AID 2010); assay type: functional, cell-based;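 further: cells exposed to compound for about 90 hours before reading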
# INS1 = assay: INS-1E survival protection against cytokine death – cell-based, luminescence, retest, dose response (AID 449756); assay type: functional; details: Rattus norvegicus, INS1;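 further: cell death triggered by IL-1 beta plus TNF-alpha plus IFN-gamma mixture; protective hits raise ATP signal compared with cytokine alone wells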
# [3] = target: T1, RNA-binding protein pos-1 (Caenorhabditis elegans, UniProt G5EF15); assay: disruptors of C. elegans POS-1 RNA interaction – biochemical, fluorescence polarization, dose response (AID 1964);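 further: purified POS-1 fused to maltose binding protein made in E. coli; potency of compounds blocking POS-1 binding to fluorescent RNA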
# T1 sequence (G5EF15 whole entry): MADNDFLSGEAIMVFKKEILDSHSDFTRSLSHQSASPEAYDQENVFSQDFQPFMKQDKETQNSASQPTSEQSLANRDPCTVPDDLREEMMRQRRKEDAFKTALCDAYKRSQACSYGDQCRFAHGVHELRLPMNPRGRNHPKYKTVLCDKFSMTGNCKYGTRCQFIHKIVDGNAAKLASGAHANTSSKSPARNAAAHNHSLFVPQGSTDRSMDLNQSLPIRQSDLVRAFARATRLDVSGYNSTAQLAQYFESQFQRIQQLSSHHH
# [4] = target: T2, Zinc finger protein mex-5 (Caenorhabditis elegans, UniProt Q9XUB2); assay: potency of MEX-5 RNA-binding blockers – biochemical, C. elegans, fluorescence polarization, dose response (AID 1960)
# T2 sequence (Q9XUB2 whole entry): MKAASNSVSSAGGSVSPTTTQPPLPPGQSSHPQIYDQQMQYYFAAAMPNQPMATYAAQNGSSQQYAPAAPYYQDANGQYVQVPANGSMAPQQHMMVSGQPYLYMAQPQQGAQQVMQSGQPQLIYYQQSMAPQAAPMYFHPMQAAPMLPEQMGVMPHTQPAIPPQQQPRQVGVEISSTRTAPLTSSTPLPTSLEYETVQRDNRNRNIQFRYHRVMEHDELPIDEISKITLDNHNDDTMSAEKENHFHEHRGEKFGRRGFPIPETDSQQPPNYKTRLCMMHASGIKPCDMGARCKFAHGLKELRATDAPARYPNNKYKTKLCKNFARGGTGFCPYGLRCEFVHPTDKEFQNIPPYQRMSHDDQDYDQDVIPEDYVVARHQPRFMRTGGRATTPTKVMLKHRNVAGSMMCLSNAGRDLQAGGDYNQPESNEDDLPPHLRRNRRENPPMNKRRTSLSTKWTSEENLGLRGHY
# Cytochrome P450 3A4 = Cytochrome P450 3A4 (Homo sapiens, UniProt P08684);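 further: CYP3A4 tested as one member of a cytochrome P450 panel screen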
# Sequence of Cytochrome P450 3A4 (P08684 whole entry): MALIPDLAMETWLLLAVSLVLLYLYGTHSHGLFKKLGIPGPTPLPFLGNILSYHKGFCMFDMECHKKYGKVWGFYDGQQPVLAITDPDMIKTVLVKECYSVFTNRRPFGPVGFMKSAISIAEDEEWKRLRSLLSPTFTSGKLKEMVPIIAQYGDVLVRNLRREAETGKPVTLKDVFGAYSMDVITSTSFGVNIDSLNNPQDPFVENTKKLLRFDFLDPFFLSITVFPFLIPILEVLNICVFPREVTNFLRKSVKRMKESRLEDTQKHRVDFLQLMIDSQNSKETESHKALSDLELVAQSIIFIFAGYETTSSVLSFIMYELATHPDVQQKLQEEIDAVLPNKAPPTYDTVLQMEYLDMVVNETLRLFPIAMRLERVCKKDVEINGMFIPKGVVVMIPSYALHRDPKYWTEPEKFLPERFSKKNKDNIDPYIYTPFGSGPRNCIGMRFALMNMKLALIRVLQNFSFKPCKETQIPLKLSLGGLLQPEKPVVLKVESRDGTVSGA
# [5] = Luminescence Cell-Based Dose Response HTS to Identify Activators of Luciferase Translation or Activity in H4 […] Cells. [Related pubchem assays: 1829 (Project Summary), 1814 (Primary HTS)]; assay type: functional
# [6] = test system: Streptococcus sp. 'group A'; assay: Streptococcus pyogenes SK(-)GAS viability under kanamycin – luminescence, BacTiterGlo, confirmation, counter-screen for streptokinase expression inhibitor project, dose response (AID 1900); assay type: functional, organism-based
# Streptococcus = assay: GAS UMAA2166 growth inhibition – luminescence, BacTiterGlo, counter-screen for streptokinase expression inhibitor project, dose response (AID 1915); assay type: functional, organism-based;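 further: potency for reduction of bacterial viability or growth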
# Cytochrome P450 1A2 = target: T3, Cytochrome P450 1A2 (Homo sapiens, UniProt P05177);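 further: PubChem cytochrome P450 panel assay, CYP1A2 panel member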
# T3 sequence (P05177 whole entry): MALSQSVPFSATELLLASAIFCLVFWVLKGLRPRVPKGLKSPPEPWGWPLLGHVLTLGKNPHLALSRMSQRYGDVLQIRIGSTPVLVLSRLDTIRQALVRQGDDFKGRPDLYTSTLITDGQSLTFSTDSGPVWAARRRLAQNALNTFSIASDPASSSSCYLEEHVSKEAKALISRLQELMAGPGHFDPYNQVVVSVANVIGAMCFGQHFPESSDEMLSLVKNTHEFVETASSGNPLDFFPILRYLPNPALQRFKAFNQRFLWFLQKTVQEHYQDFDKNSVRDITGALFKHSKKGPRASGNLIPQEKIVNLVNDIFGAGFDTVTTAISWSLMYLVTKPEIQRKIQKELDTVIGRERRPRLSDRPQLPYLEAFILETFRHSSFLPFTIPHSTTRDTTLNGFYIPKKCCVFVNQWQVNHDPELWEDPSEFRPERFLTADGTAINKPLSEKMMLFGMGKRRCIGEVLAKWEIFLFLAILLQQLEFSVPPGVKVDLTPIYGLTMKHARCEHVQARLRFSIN
# [7] = target: T4, Corticotropin-releasing factor receptor 2/Corticotropin-releasing factor-binding protein (Homo sapiens, UniProt P24387+Q13324); assay: activators of CRF receptor 2 with binding protein – uHTS hits, confirmation (AID 602473); assay type: functional; details: read-out: EC50_Mean
# T4 sequence (Q13324 whole entry): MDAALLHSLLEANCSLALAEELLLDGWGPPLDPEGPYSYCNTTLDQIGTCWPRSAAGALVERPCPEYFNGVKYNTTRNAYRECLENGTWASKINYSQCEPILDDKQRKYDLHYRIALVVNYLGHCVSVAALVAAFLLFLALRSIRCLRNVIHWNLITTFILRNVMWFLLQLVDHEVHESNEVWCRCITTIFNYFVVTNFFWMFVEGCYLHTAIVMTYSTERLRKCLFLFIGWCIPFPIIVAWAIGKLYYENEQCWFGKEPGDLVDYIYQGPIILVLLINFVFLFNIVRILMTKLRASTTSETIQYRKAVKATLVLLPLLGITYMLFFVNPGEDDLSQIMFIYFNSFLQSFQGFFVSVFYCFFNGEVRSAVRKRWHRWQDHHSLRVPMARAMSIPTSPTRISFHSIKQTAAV
# T4 sequence (P24387 whole entry): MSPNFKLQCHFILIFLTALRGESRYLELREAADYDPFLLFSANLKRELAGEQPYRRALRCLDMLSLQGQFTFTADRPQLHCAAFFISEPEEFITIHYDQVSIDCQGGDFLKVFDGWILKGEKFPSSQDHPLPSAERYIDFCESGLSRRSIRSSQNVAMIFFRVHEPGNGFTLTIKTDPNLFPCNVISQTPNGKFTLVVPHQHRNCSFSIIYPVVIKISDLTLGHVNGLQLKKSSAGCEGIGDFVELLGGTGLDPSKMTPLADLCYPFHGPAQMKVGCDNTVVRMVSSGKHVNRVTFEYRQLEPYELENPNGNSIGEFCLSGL
smiles,measurement,setting,value
COCCn1c(SCC(=O)NC(=O)NCc2ccccc2)nc2ccccc21,EC50,[1],1.14 µM (active)
same,EC50,[2],> 60 µM (not active)
COc1ccc(-c2c[n+](-c3ccc(Cl)cc3)c3n2CCCCC3)cc1,EC50,[1],0.781 µM (active)
same,EC50,[2],> 60 µM (not active)
same,AC50,INS1,2.16 µM (active)
COc1cccc(C(=O)NNc2nc(C)cc(C)n2)c1,EC50,[3],> 300 µM (not active)
same,EC50,[4],127 µM (active)
CC1=CC(C)(C)N2C(=O)C3(C(C#N)=C(N)OC4=C3C(=O)CCC4)c3c(C)c(C)cc1c32 (stereo unspecified),EC50,[3],> 300 µM (not active)
same,EC50,[4],> 300 µM (not active)
CCC(C)n1c(=N)c(C#N)cc2c(=O)n3cccc(C)c3nc21 (stereo unspecified),EC50,[3],296 µM (active)
same,EC50,[4],21.5 µM (inconclusive)
CCOC(=O)Cc1ccc(NCc2ccc(Cl)cc2)cc1,EC50,[1],1.47 µM (active)
same,EC50,[2],> 30 µM (not active)
CCOc1cc(/C=N/NC(=O)c2cc(-c3cccc(OC)c3)nc3ccccc23)ccc1O,AC50,INS1,8.15 µM (active)
COc1ccc(CCNC[C@H](O)c2ccc(O)cc2)cc1OC [DENOPAMINE],AC50,Cytochrome P450 3A4,25.1 µM (inconclusive)
CCN1C(=O)[C@H]2[C@@H](c3ccc(-c4cccc(Cl)c4)cc3)N[C@@](Cc3ccccc3)(C(=O)OC)[C@H]2C1=O,EC50,[1],2.06 µM (active)
same,EC50,[2],14.6 µM (active)
COc1ccc(Nc2ncnc3c2oc2ccccc23)cc1,EC50,[5],7.34 µM (active)
O=C(CCN1CCN(Cc2ccccc2)CC1)Nc1cccc(Cl)c1,EC50,[1],0.965 µM (active)
same,EC50,[2],> 60 µM (not active)
Cc1ccc(/C(O)=C/c2nc3cc(C)ccc3oc2=O)cc1,EC50,[3],7.64 µM (inconclusive)
same,EC50,[4],1.64 µM (inconclusive)
CC(C)Cc1ccc(CN2CCC(n3nccc3NC(=O)C3CCCC3)CC2)cc1,EC50,[1],0.313 µM (active)
same,EC50,[2],> 60 µM (not active)
CCOc1ccc(N2C(=O)NC(=O)/C(=C\Nc3ccc(N4CCOCC4)cc3)C2=O)cc1,EC50,[3],17.6 µM (inconclusive)
same,EC50,[4],60.4 µM (inconclusive)
CCN(CC)CCN1c2ccccc2Sc2ccc3ccccc3c21,AC50,INS1,14 µM (active)
COc1ccc(C2=NOC(CN=C(N)S)C2)cc1 (stereo unspecified),EC50,[6],3.77 µM (active)
same,EC50,Streptococcus,10.9 µM (active)
COc1ccc(-c2nc3cnc(N4CCN(C)CC4)nc3n(C)c2=O)cc1,AC50,Cytochrome P450 1A2,25.1 µM (inconclusive)
CCN(CC(=O)Nc1ccc(NC(C)=O)cc1)C(=O)CCCOc1ccc(C(C)(C)C)cc1,AC50,INS1,23.7 µM (active)
CC(C)(C)C(=O)Nc1ccnc(-c2cccnc2)n1,AC50,Cytochrome P450 3A4,2.51 µM (inconclusive)
O=C(CN1CCC(C(O)(c2ccccc2)c2ccccc2)CC1)Nc1cc(Cl)ccc1Cl,EC50,[1],1.38 µM (active)
same,EC50,[2],9.41 µM (active)
Cc1ccc(NC(=O)CCS(=O)(=O)c2cc3c(cc2Cl)NC(=O)CO3)cc1,EC50,[3],> 300 µM (not active)
same,EC50,[4],> 300 µM (not active)
Clc1cc(-c2ccc(/C=N/n3cnnc3)o2)ccc1Br,EC50,[3],59.4 µM (active)
same,EC50,[4],81.6 µM (active)
CC(C)OCCCn1/c(=N/C(=O)c2cccs2)c(C#N)cc2c(=O)n3ccccc3nc21,EC50,[3],> 300 µM (not active)
same,EC50,[4],> 300 µM (not active)
C=C(C)CSc1nc2sc3c(c2c(=O)n1-c1ccccc1)CCN(C)C3,EC50,[1],0.197 µM (active)
same,EC50,[2],> 30 µM (not active)
Cc1ccc(S(=O)(=O)c2ccccc2)cc1S,EC50,[1],0.983 µM (active)
same,EC50,[2],> 30 µM (not active)
COc1ccc(N(C)S(=O)(=O)c2ccc3c(c2)CCC(=O)N3)cc1,AC50,Cytochrome P450 1A2,0.01 µM (inconclusive)
same,AC50,Cytochrome P450 3A4,3.55 µM (inconclusive)
O=C(C1CCCN(Cc2cccc(Cl)c2)C1)N1CCCCC1 (stereo unspecified),EC50,[1],0.167 µM (active)
same,EC50,[2],> 30 µM (not active)
O=C(CN1CCOCC1)N/N=C/c1c(O)ccc2ccccc12,AC50,INS1,4.87 µM (active)
CCC(CO)Oc1cc(NCc2ccc(C(C)(C)C)cc2)c2ncn(C(C)C)c2c1 (stereo unspecified),AC50,INS1,3.07 µM (active)
COc1cc(OC)cc(C(=O)Nn2cc(C(=O)N3CCN(C)CC3)c3ccccc3c2=O)c1,AC50,Cytochrome P450 1A2,10 µM (inconclusive)
same,AC50,Cytochrome P450 3A4,28.2 µM (inconclusive)
COCCNC(=O)CSc1nc2ccc(N3CCOCC3)cc2c(=O)n1Cc1ccc(OC)cc1,AC50,Cytochrome P450 1A2,15.8 µM (inconclusive)
Cc1ccc(OC[C@H](O)[C@H](C)NC(C)C)c2c1CCC2,AC50,Cytochrome P450 3A4,31.6 µM (inconclusive)
COc1cccc2c(=O)n(CC(=O)N3CCc4ccccc43)ccc12,EC50,[7],> 53 µM (inactive)
O=C(NCc1cccnc1)c1sc2cc(Cl)ccc2c1Cl,AC50,Cytochrome P450 3A4,0.891 µM (inconclusive)
CCc1noc(C)c1C(=O)N1CCCC(C(=O)c2cc(F)ccc2OC)C1 (stereo unspecified),EC50,[1],9.23 µM (active)
same,EC50,[2],> 60 µM (not active)
O=C(O)c1ccccc1C(=O)Nc1cc2c(cc1Br)-c1ccccc1C2=O,AC50,Cytochrome P450 1A2,0.631 µM (inconclusive)
CC(C)[C@H](Sc1nc(N)nc2[nH]cnc12)C(=O)O,AC50,Cytochrome P450 1A2,0.316 µM (inconclusive)
CC(CN1CCN(C)CC1)OC(=O)c1ccc(Cl)cc1 (stereo unspecified),EC50,[1],0.606 µM (active)
same,EC50,[2],> 60 µM (not active)
CN1CCCC2(CCN(C(=O)c3cnccn3)CC2)C1,AC50,Cytochrome P450 3A4,25.1 µM (inconclusive)
O=C(Nc1ccc(F)cc1F)N1CCCCC1c1cccnc1 (stereo unspecified),EC50,[1],0.654 µM (active)
same,EC50,[2],> 60 µM (not active)
N#Cc1ccc(CN2CC[C@@]3(CCCNC3)C2)cc1,AC50,Cytochrome P450 1A2,25.1 µM (inconclusive)
same,AC50,Cytochrome P450 3A4,31.6 µM (inconclusive)
COc1ccccc1CN1C[C@@H]2C[C@@H](c3ccc(C)c(C)c3)N3CCC[C@@]23C1=O,EC50,[1],2.26 µM (active)
same,EC50,[2],> 30 µM (not active)
COc1ccc(Cl)c(Cn2c(NCc3ccco3)nc3c2c(=O)n(C)c(=O)n3C)c1,AC50,INS1,3.27 µM (active)
Cc1ccc(-c2cnc(NC(=O)CCC(=O)N(C)Cc3ccccc3)n2C)cc1,AC50,INS1,21.3 µM (active)
O=C(CCn1c2c(c3ccccc31)CCCC2)NNC(=O)c1ccccc1C(=O)O,EC50,[7],7.66 µM (active)
O=C(Nc1cccc(-c2cn3cccnc3n2)c1)c1ccco1,EC50,[1],0.941 µM (active)
same,EC50,[2],> 30 µM (not active)
same,AC50,Cytochrome P450 3A4,25.1 µM (inconclusive)
CC(=O)N1CCN(C(=O)CC2OC(=O)c3ccccc32)CC1 (stereo unspecified),AC50,Cytochrome P450 1A2,22.4 µM (inconclusive)
